Experimental data taken from PMC5335602, “Protein-ligand binding affinity determination by the waterLOGSY method: An optimised approach considering ligand rebinding” (Scientific Reports, 2017).

Columns and labels:
Type in all cases: binding
α-chymotrypsin = molecular target: T1, α-chymotrypsin (Bos taurus, UniProt P00766); experiment: […] NMR chemical shift titration; waterLOGSY titration
T1 construct: from bovine pancreas, Type II

[1] = molecular target: T2, bovine serum albumin (BSA) (Bos taurus, UniProt P02769); experiment: waterLOGSY NMR titration ([…] BSA)
T2 construct: gene ALB

[2] = molecular target: T3, human serum albumin (HSA) (Homo sapiens, UniProt P02768); experiment: waterLOGSY NMR titration ([…] HSA, […] s mixing time); conditions: read-out: KD^obs/μM / 25 μM HSA
T3 construct: gene ALB
T3 sequence (P02768 25-609): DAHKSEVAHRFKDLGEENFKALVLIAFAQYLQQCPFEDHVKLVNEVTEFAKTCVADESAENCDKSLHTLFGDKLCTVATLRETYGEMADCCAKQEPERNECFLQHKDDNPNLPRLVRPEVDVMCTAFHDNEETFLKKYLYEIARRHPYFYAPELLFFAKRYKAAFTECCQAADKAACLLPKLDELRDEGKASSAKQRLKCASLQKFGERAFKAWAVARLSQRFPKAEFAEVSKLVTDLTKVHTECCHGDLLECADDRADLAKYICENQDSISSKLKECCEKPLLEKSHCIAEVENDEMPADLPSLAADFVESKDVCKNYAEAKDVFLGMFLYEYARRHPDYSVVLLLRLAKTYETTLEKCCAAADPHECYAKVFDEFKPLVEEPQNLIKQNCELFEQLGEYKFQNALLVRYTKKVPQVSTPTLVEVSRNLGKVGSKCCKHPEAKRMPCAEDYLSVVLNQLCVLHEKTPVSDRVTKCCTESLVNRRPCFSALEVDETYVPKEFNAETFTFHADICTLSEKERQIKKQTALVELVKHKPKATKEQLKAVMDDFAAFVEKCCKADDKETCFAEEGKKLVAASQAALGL

T2 sequence (P02769 25-607): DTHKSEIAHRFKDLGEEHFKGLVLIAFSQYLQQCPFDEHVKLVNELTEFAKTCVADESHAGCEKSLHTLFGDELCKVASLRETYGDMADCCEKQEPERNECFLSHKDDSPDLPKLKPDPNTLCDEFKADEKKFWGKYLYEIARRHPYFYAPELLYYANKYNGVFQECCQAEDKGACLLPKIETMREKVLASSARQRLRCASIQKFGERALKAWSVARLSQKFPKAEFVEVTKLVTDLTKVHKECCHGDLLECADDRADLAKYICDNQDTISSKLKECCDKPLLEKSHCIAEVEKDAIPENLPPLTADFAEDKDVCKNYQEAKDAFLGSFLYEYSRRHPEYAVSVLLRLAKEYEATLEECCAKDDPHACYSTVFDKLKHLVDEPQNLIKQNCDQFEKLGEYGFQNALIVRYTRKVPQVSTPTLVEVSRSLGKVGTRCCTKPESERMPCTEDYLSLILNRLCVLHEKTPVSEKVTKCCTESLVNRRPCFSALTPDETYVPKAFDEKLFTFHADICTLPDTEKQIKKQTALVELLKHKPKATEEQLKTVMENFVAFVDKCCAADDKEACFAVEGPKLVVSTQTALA

Row | Kd (α-chymotrypsin) [µM] | Compound | Kd [1] [µM] | Kd [2] [µM]
1 | 630 | OB(O)c1cccc(F)c1 [3-Fluorophenylboronic acid] | – | –
2 | – | N[C@@H](Cc1c[nH]c2ccccc12)C(=O)O [L-tryptophan] | ~120 | 185 ± 50
